Results published in patent publication US9822058B2 (CHDI FOUNDATION, INC., priority 2012, dated 2017).

Molecular target: T1, KMO mouse enzyme (Mus musculus, UniProt Q91WN4)
T1 construct: KMO enzyme prepared at Evotec from mouse liver (4-6 weeks old) via mitochondria isolation; from tissue; host or cells: mouse liver (4-6 weeks old), isolated mitochondria, prepared at Evotec
Assay: KMO mouse enzyme assay: L-Kynurenine hydroxylation to 3-Hydroxy-Kynurenine by LC/MS (protocols substantially similar to Example 33)
Assay type: biochemical
Experimental: A method of monitoring L-Kynurenine (KYN) hydroxylation to form 3-Hydroxy-Kynurenine (3OH-KYN) by LC/MS is described. Product is quantified by multiple reaction monitoring (MRM method). […]
Using the assay protocols substantially similar to those of Example 33, the following compounds were tested.

[1] = compound at 30 µM, KMO enzyme from mouse liver mitochondria, 100 μM L-Kynurenine, 40 min at RT

T1 sequence (Q91WN4 whole entry): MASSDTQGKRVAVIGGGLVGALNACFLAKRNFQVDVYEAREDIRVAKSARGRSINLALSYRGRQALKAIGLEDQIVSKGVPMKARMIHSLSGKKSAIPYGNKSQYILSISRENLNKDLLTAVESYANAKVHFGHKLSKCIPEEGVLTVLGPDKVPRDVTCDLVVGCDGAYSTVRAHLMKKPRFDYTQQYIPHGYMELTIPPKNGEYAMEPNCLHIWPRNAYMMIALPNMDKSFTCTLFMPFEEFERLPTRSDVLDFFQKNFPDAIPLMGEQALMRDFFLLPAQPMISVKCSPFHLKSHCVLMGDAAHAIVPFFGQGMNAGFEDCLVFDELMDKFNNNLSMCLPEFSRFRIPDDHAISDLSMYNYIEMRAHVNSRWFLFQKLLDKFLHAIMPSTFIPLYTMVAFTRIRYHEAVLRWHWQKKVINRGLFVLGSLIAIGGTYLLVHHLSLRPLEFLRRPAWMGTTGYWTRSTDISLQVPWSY

NC(=O)[C@H]1C[C@@H]1C(=O)c1ccc(OC2CC2)c(Cl)c1 [(1S,2S)-2-[(3-chloro-4-cyclopropoxyphenyl)carbonyl]cyclopropane-1-carboxamide]
inhibition at 30 µM [1]: 42%

C[C@H]1[C@@H](C(=O)O)[C@@H]1C(=O)c1ccc(Cl)c(Cl)c1 (single isomer, unassigned)
inhibition at 30 µM [1]: 101%

O=C(O)[C@H]1C[C@@H]1C(=O)c1ccc(F)c(F)c1 [(1S,2S)-2-[(3,4-Difluorophenyl)carbonyl]cyclopropane-1-carboxylic acid]
inhibition at 30 µM [1]: 88%

CC1(C)[C@H](C(=O)O)[C@H]1C(=O)c1ccc(Cl)c(Cl)c1 [(1R,3R)-3-(3,4-dichlorobenzoyl)-2,2-dimethylcyclopropane-1-carboxylic acid]
inhibition at 30 µM [1]: 54%

O=C(c1ccc(F)c(Cl)c1)[C@H]1C[C@@H]1c1noc(=O)[nH]1 [3-[(1S,2S)-2-[(3-Chloro-4-fluorophenyl)carbonyl]cyclopropyl]-4,5-dihydro-1,2,4-oxadiazol-5-one]
inhibition at 30 µM [1]: 101%

C[C@@H]1[C@@H](C(=O)O)[C@@H]1C(=O)c1ccc(Cl)c(Cl)c1 (single isomer, unassigned)
inhibition at 30 µM [1]: 96.7%

Cc1ccc(C(=O)[C@H]2C[C@@H]2C(=O)O)cc1Cl [(1S,2S)-2-[(3-Chloro-4-methylphenyl)carbonyl]cyclopropane-1-carboxylic acid]
inhibition at 30 µM [1]: 100%

O=C(O)[C@H]1C[C@@H]1C(=O)c1ccc(OC2CC2)c(Cl)c1 [(1S,2S)-2-[(3-Chloro-4-cyclopropoxyphenyl)carbonyl]cyclopropane-1-carboxylic acid]
inhibition at 30 µM [1]: 101%
% Inhibition at 30 µM (compound at 30 µM; KMO enzyme from mouse liver mitochondria; 100 μM L-Kynurenine; 40 min at RT; listed as 1S,2S)-2-(3-chloro-4-cyclopropoxybenzoyl)cyclopropane-1-carboxylic acid): 100.5%

Cc1ccc(C(=O)[C@H]2C[C@@H]2C(=O)[O-])cc1Cl.[Na+] [Sodium (1S,2S)-2-[(3-chloro-4-methylphenyl)carbonyl]cyclopropane-1-carboxylate]
% Inhibition at 30 µM [1]: 100%

N[C@@H](CCCCNC(=O)[C@H]1C[C@@H]1C(=O)c1ccc(Cl)c(Cl)c1)C(=O)O [(2S)-2-Amino-6-{[(1S,2S)-2-[(3,4-dichlorophenyl)carbonyl]cyclopropyl]formamide}hexanoic acid]
% Inhibition at 30 µM [1]: 98%

CC(C)Oc1ccc(C(=O)[C@H]2C[C@@H]2C(=O)O)cc1Cl [(1S,2S)-2-{[3-Chloro-4-(propan-2-yloxy)phenyl]carbonyl}cyclopropane-1-carboxylic acid]
inhibition at 30 µM [1]: 98%

O=C(O)[C@H]1C[C@@H]1C(=O)c1ccc(Cl)c(Cl)c1 [(1S,2S)-2-[(3,4-Dichlorophenyl)carbonyl]cyclopropane-1-carboxylic acid]
inhibition at 30 µM [1]: 106%

C[C@H]1[C@H](C(=O)O)[C@H]1C(=O)c1ccc(Cl)c(Cl)c1 (single isomer, unassigned)
inhibition at 30 µM [1]: 101%

C[C@]1(C(=O)O)C[C@@H]1C(=O)c1ccc(Cl)c(Cl)c1 [(1S,2S)-2-(3,4-dichlorobenzoyl)-1-methylcyclopropane-1-carboxylic acid]
inhibition at 30 µM [1]: 98.6%

CC(C)(C)C(=O)OCOC(=O)[C@H]1C[C@@H]1C(=O)c1ccc(Cl)c(Cl)c1 [{[(1S,2S)-2-[(3,4-dichlorophenyl)carbonyl]cyclopropyl]carbonyloxy}methyl 2,2-dimethylpropanoate]
inhibition at 30 µM [1]: 102%

CC(OC(=O)[C@H]1C[C@@H]1C(=O)c1ccc(Cl)c(Cl)c1)OC(=O)[C@H]1C[C@@H]1C(=O)c1ccc(Cl)c(Cl)c1 [1-{[(1S,2S)-2-[(3,4-dichlorophenyl)carbonyl]cyclopropyl]carbonyloxy}ethyl (1S,2S)-2-[(3,4-dichlorophenyl)carbonyl]cyclopropane-1-carboxylate]
inhibition at 30 µM [1]: 98%

CC(C)Oc1ccc(C(=O)[C@H]2C[C@@H]2C(=O)[O-])cc1Cl.[Na+] [Sodium (1S,2S)-2-{[3-chloro-4-(propan-2-yloxy)phenyl]carbonyl}cyclopropane-1-carboxylate]
% Inhibition at 30 µM [1]: 102%

O=C(c1ccc(Cl)c(Cl)c1)C1CC12CCOC2=O (stereo not drawn) [1-[(3,4-dichlorophenyl)carbonyl]-5-oxaspiro[2.4]heptan-4-one]
inhibition at 30 µM [1]: 38%

CCCCOC(=O)[C@H]1C[C@@H]1C(=O)c1ccc(Cl)c(Cl)c1 [Butyl (1S,2S)-2-[(3,4-Dichlorophenyl)carbonyl]cyclopropane-1-carboxylate]
inhibition at 30 µM [1]: 101%

O=C(O)[C@H]1C[C@@H]1C(=O)c1ccc(Cl)c(F)c1 [(1S,2S)-2-[(4-Chloro-3-fluorophenyl)carbonyl]cyclopropane-1-carboxylic acid]
inhibition at 30 µM [1]: 103%

O=C(NCCO)[C@H]1C[C@@H]1C(=O)c1ccc(Cl)c(Cl)c1 [(1S,2S)-2-[(3,4-dichlorophenyl)carbonyl]-N-(2-hydroxyethyl)cyclopropane-1-carboxamide]
inhibition at 30 µM [1]: 94%

CCN(CC)CCOC(=O)[C@H]1C[C@@H]1C(=O)c1ccc(Cl)c(Cl)c1 [2-(Diethylamino)ethyl (1S,2S)-2-[(3,4-dichlorophenyl)carbonyl]cyclopropane-1-carboxylate]
inhibition at 30 µM [1]: 102%

CC(C)OC(=O)OC(C)OC(=O)[C@H]1C[C@@H]1C(=O)c1ccc(Cl)c(Cl)c1 (stereo partly drawn) [1-{[(Propan-2-yloxy)carbonyl]oxy}ethyl (1S,2S)-2-[(3,4-dichlorophenyl)carbonyl]cyclopropane-1-carboxylate]
inhibition at 30 µM [1]: 103%

C[C@@H]1[C@H](C(=O)O)[C@H]1C(=O)c1ccc(Cl)c(Cl)c1 (single isomer, unassigned)
inhibition at 30 µM [1]: 52.5%

CC(C)OC(=O)[C@H]1C[C@@H]1C(=O)c1ccc(Cl)c(Cl)c1 [Propan-2-yl (1S,2S)-2-[(3,4-dichlorophenyl)carbonyl]cyclopropane-1-carboxylate]
inhibition at 30 µM [1]: 101%

O=C(O)[C@H]1C[C@@H]1C(=O)c1cc(Cl)cc(Cl)c1 [(1S,2S)-2-[(3,5-Dichlorophenyl)carbonyl]cyclopropane-1-carboxylic acid]
inhibition at 30 µM [1]: 103%

CC(C)COC(=O)[C@H]1C[C@@H]1C(=O)c1ccc(Cl)c(Cl)c1 [2-Methylpropyl (1S,2S)-2-[(3,4-dichlorophenyl)carbonyl]cyclopropane-1-carboxylate]
inhibition at 30 µM [1]: 101%

C[N+](C)(C)CC(CC(=O)O)OC(=O)[C@H]1C[C@@H]1C(=O)c1ccc(Cl)c(Cl)c1 (stereo partly drawn) [(3-Carboxy-2-{[(1S,2S)-2-[(3,4-dichlorophenyl)carbonyl]cyclopropyl]carbonyloxy}propyl)trimethylazanium]
% Inhibition at 30 µM [1]: 99%

O=C(c1ccc(Cl)c(Cl)c1)[C@H]1C[C@@H]1c1nnn[nH]1 [5-[(1S,2S)-2-[(3,4-Dichlorophenyl)carbonyl]cyclopropyl]-1H-1,2,3,4-tetrazole]
inhibition at 30 µM [1]: 101%

O=C(O)[C@H]1N[C@@H]1C(=O)c1ccc(Cl)c(Cl)c1 [(2S,3S)-3-[(3,4-Dichlorophenyl)carbonyl]aziridine-2-carboxylic acid]
inhibition at 30 µM [1]: 101%

CCOC(=O)OC(C)OC(=O)[C@H]1C[C@@H]1C(=O)c1ccc(Cl)c(Cl)c1 (stereo partly drawn) [1-[(Ethoxycarbonyl)oxy]ethyl (1S,2S)-2-[(3,4-dichlorophenyl)carbonyl]cyclopropane-1-carboxylate]
inhibition at 30 µM [1]: 102%

O=C(O)[C@H]1C[C@@H]1C(=O)c1ccc(C(F)(F)F)c(Cl)c1 [(1S,2S)-2-{[3-Chloro-4-(trifluoromethyl)phenyl]carbonyl}cyclopropane-1-carboxylic acid]
inhibition at 30 µM [1]: 102%

O=C(O)[C@H]1C[C@@H]1C(=O)c1ccc(F)c(Cl)c1 [Sodium (1S,2S)-2-[(3-chloro-4-fluorophenyl)carbonyl]cyclopropane-1-carboxylate]
inhibition at 30 µM [1]: 102%

N#C[C@H]1C[C@@H]1C(=O)c1ccc(Cl)c(Cl)c1 [(1S,2S)-2-[(3,4-Dichlorophenyl)carbonyl]cyclopropane-1-carbonitrile]
inhibition at 30 µM [1]: 68%

O=C(c1ccc(Cl)c(Cl)c1)[C@H]1C[C@@H]1c1noc(=O)[nH]1 [3-[(1S,2S)-2-[(3,4-Dichlorophenyl)carbonyl]cyclopropyl]-4,5-dihydro-1,2,4-oxadiazol-5-one]
inhibition at 30 µM [1]: 101%

O=C(Nc1ccccc1)[C@H]1C[C@@H]1C(=O)c1ccc(Cl)c(Cl)c1 [(1S,2S)-2-[(3,4-Dichlorophenyl)carbonyl]-N-phenylcyclopropane-1-carboxamide]
inhibition at 30 µM [1]: 86%

CC(C)(C)c1ccc(OC(=O)[C@H]2C[C@@H]2C(=O)c2ccc(Cl)c(Cl)c2)cc1 [4-tert-Butylphenyl (1S,2S)-2-[(3,4-dichlorophenyl)carbonyl]cyclopropane-1-carboxylate]
inhibition at 30 µM [1]: 101%

O=C(c1ccc(F)c(Cl)c1)C1C[C@@H]1C(=O)O (stereo partly drawn) [(1S)-2-[(3-Chloro-4-fluorophenyl)carbonyl]cyclopropane-1-carboxylic acid]
inhibition at 30 µM [1]: 68%

COC(=O)[C@H]1C[C@@H]1C(=O)c1cc(Cl)cc(Cl)c1 [Methyl (1S,2S)-2-[(3,5-dichlorophenyl)carbonyl]cyclopropane-1-carboxylate]
inhibition at 30 µM [1]: 104%

CC(=O)OC(C)OC(=O)[C@H]1C[C@@H]1C(=O)c1ccc(Cl)c(Cl)c1 (stereo partly drawn) [1-{[(1S,2S)-2-[(3,4-Dichlorophenyl)carbonyl]cyclopropyl]carbonyloxy}ethyl acetate]
inhibition at 30 µM [1]: 103%

O=C1CN(C(=O)[C@H]2C[C@@H]2C(=O)c2ccc(Cl)c(Cl)c2)CCN1 [4-{[(1S,2S)-2-[(3,4-Dichlorophenyl)carbonyl]cyclopropyl]carbonyl}piperazin-2-one]
inhibition at 30 µM [1]: 33%

O=C(OCCO)[C@H]1C[C@@H]1C(=O)c1ccc(Cl)c(Cl)c1 [2-Hydroxyethyl (1S,2S)-2-[(3,4-dichlorophenyl)carbonyl]cyclopropane-1-carboxylate]
inhibition at 30 µM [1]: 102%

O=C(O)[C@H]1C[C@@H]1C(=O)c1cccc(Cl)c1 [(1S,2S)-2-[(3-Chlorophenyl)carbonyl]cyclopropane-1-carboxylic acid]
inhibition at 30 µM [1]: 105%

CC1(C)[C@@H](C(=O)O)[C@@H]1C(=O)c1ccc(Cl)c(Cl)c1 [(1S,3S)-3-(3,4-dichlorobenzoyl)-2,2-dimethylcyclopropane-1-carboxylic acid]
inhibition at 30 µM [1]: 15.4%
